In patent US7423054B2, “Therapeutic pyrazolo[3,4-b]pyridines and indazoles” (Warner Lambert Company LLC, priority 2004, dated 2008):
Structures can show the parent of a compound that is named as a salt.

Legend:
[1] = target: T1, human serotonin transporter (hSERT) (Homo sapiens, UniProt P31645); assay: hSERT receptor binding ([125I]-RTI-55 displacement, membranes of transfected HEK-293 cells); settings: HEK-293 membranes, Ki from IC50 by Cheng-Prusoff, read-out: SERT Ki
T1 construct: expressed in transfected cells; host or cells: HEK-293 cells (membrane preparation)
In short: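 Membranes from HEK-293 cells expressing human SERT were incubated 90 min at room temperature in Krebs-HEPES (pH 7.4) with 50 pM [125I]-RTI-55 and compound (10^-12 to 10^-5 M), in duplicate. Nonspecific binding was defined with 10 μM citalopram. Ki from IC50 by Cheng-Prusoff.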

[2] = system: capsaicin-induced mechanical allodynia; assay: Rat model of capsaicin-induced mechanical allodynia (paw withdrawal threshold, Von Frey); assay type: in vivo; settings: Rattus norvegicus, po, 2 h, male Sprague-Dawley rats, oral single dose 10 mg/kg, contralateral PWT at 2 hours after dose, mean of eight animals; read-out: % inhibition +/− SEM
Procedure: In certain embodiments, the compounds of formula I may be assayed for their ability to alleviate capsaicin-induced mechanical allodynia in a rat (e.g., Sluka, K A, (2002) J of Neuroscience, 22(13): 5687-5693). For example, a rat model of capsaicin-induced mechanical allodynia) can be carried out as follows:
On day 0, male Sprague-Dawley rats (˜150 g) in the dark cycle are placed in suspended wire-bottom cages and allowed to acclimate for 0.5 h in a darkened, quiet room. The day 0 paw withdrawal threshold (PWT) is determined on the left hind paw by Von Frey hair assessment using the Dixon up and down method. After assessment, the plantar muscle of the right hind paw is injected with 100 μl capsaicin (0.25% in 10% ethanol, 10% Tween 80, in sterile saline). On day 6 the PWT of the left hindpaw (contralateral from injection site) is determined for each animal. Animals from the day 6 prereads with PWT≦11.7 g are considered allodynic responders and are regrouped so that each cage had similar mean PWT values. On day 7, responders are dosed (e.g., orally, intraperitoneally, and subcutaneously, etc.) with 10 ml/kg vehicle (0.5% HPMC(hydroxy-propylmethylcellulose)/0.2% Tween™ 80), or vehicle plus compound. The contralateral PWT values are determined at 2 hours (or at about the time corresponding to the estimated Cmax) after the single dose, with the investigator blinded to the dosing scheme. Those of skill in the art can determine the appropriate time to determine the contralateral PWT value (e.g., 1 hour, 2 hours, etc.).
For each animal, the day 6 PWT value is subtracted from the 2 hour PWT value to give a delta PWT value that represents the change in PWT due to the 2 hour drug treatment. In addition, the day 6 PWT is subtracted from the day 0 PWT to give the baseline window of allodynia present in each animal. To determine % inhibition of allodynia of each animal normalized for vehicle controls, the following formula is used: % Inhibition of Allodynia=100×(Delta PWT(drug)−mean Delta PWT(vehicle))/(Baseline−mean Delta PWT(vehicle)). Pharmaceutically Acceptable Salts and Solvates
Compounds of the present invention may be assayed for their ability to alleviate capsaicin-induced mechanical allodynia in a rat model (e.g., Sluka (2002) J of Neuroscience, 22(13)5687-5693). For example, a rat model of capsaicin-induced mechanical allodynia was carried out as follows:
On day 0, male Sprague-Dawley rats (˜150 g) in the dark cycle were placed in suspended wire-bottom cages and allowed to acclimate for 0.5 hour in a darkened, quiet room. The day 0 paw withdrawal threshold (PWT) was determined on the left hind paw by Von Frey hair assessment using the Dixon up and down method. After assessment, the plantar muscle of the right hind paw was injected with 100 μl capsaicin (0.25% (w/v) in 10% ethanol, 10% Tween 80, in sterile saline). On day 6 the PWT of the left hindpaw (contralateral from injection site) was determined for each animal. Animals from the day 6 prereads with PWT≦11.7 g were considered allodynic responders and were regrouped so that each cage had similar mean PWT values.
On day 7, responders were dosed subcutaneously with 30 mg of the compound of Example 7/kg body weight, 10 mg of the compound of the compound of Example 48/kg body weight, or with vehicle alone. The vehicle was phosphate buffered saline containing 2% Cremophor®) EL (BASF).
For the animals dosed with the compound of Example 7, the contralateral PWT values were determined at 2 hour after the single dose, with the investigator blinded to the dosing scheme.
For each animal, the day 6 PWT value was subtracted from the 2 hour PWT value for the 10 mg/kg doses to give a delta PWT value that represents the change in PWT due to the […] drug treatment. In addition, the day 6 PWT was subtracted from the day 0 PWT to give the baseline window of allodynia present in each animal. […]

[3] = target: T2, human norepinephrine transporter (hNET) (Homo sapiens, UniProt P23975); assay: hNET receptor binding ([125I]-RTI-55 displacement, membranes of transfected HEK-293 cells); settings: HEK-293 membranes, Ki from IC50 by Cheng-Prusoff, read-out: NET Ki
T2 construct: expressed in transfected cells; host or cells: HEK-293 cells (membrane preparation)
In short: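 Membranes from HEK-293 cells expressing human NET were incubated 90 min at room temperature with 50 pM [125I]-RTI-55 and compound (10^−5 to 10^−12 M) in Krebs-HEPES buffer, pH 7.4. Bound radioligand was counted after filtration, with nonspecific binding defined by 10 μM desipramine. IC50 was converted to Ki by Cheng-Prusoff.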

T2 sequence (P23975 whole entry): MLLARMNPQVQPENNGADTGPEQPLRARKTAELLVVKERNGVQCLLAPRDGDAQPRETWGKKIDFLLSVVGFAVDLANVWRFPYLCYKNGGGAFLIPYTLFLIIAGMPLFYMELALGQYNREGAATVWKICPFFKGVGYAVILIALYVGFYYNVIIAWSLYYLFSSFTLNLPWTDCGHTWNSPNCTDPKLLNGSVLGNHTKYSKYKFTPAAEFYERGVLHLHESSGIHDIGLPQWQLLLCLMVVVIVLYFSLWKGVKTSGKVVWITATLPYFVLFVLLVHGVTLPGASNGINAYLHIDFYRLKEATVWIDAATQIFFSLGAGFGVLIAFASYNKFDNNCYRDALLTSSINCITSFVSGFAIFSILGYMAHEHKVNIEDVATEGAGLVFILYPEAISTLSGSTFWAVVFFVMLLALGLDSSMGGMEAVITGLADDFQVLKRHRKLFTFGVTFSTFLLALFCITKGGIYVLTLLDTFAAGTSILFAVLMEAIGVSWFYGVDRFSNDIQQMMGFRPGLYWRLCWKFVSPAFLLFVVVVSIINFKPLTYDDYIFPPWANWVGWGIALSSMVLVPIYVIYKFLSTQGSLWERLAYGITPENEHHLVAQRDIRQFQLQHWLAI
T1 sequence (P31645 whole entry): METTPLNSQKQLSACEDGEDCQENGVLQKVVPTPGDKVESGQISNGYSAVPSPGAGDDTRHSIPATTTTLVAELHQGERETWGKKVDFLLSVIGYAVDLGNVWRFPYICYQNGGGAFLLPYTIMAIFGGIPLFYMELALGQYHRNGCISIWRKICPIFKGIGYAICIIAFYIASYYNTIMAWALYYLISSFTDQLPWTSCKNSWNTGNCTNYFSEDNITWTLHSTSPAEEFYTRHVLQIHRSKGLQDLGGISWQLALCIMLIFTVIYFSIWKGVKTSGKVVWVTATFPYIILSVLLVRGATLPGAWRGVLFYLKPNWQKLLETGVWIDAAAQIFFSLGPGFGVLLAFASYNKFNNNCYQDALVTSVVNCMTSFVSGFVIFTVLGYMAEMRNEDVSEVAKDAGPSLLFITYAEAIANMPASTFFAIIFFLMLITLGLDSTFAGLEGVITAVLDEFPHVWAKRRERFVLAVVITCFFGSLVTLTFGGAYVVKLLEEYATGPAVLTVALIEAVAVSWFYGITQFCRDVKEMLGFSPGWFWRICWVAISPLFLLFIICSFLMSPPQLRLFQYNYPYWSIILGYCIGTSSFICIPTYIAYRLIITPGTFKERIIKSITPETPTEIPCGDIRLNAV

`c1ccc(-n2nc(OC[C@@H]3CCNC3)c3ccccc32)cc1` [Example 14, (R)-1-Phenyl-3-(pyrrolidin-3-ylmethoxy)-1H-indazole hydrochloride] was tested, and the Ki [1] was 0.1 µM, the inhibition in vivo at 10 mg/kg [2] was 30.8% and the Ki [3] was 0.0131 µM.
Molecule `Fc1ccccc1-n1nc(OC2CCNCC2)c2c(F)cccc21` [Example 100, 4-Fluoro-1-(2-fluoro-phenyl)-3-(piperidin-4-yloxy)-1H-indazole hydrochloride] has a Ki [1] of 0.102 µM, an inhibition in vivo at 10 mg/kg [2] of 8.7% and a Ki [3] of 0.00463 µM.
`Fc1ccc(-n2nc(OC[C@H]3CCNC3)c3ccccc32)c(F)c1` [Example 8, (S)-1-(2,4-Difluoro-phenyl)-3-(pyrrolidin-3-ylmethoxy)-1H-indazole hydrochloride] showed a Ki [1] of 0.039 µM, an inhibition in vivo at 10 mg/kg [2] of 11.5% and a Ki [3] of 0.00519 µM.
